Assay: xn = mol fraction of the nth substance listed
Details: 100 kPa, Liquid; for viscosity: Concentric cylinders viscometry; for mass density: Vibrating tube method

CCCCn1cc[n+](C)c1.O=[N+]([O-])[O-] [1-butyl-3-methylimidazolium nitrate] + CCC(C)O
Details	mass density [kg/m3]	viscosity [mPa·s]
293.15 K, x1 = 0.0813	860.4	5.41
293.15 K, x1 = 0.1595	904.7	7.32
293.15 K, x1 = 0.2402	944.9	10.17
293.15 K, x1 = 0.35	991.2	15.43
293.15 K, x1 = 0.4403	1023.7	21.65
293.15 K, x1 = 0.5597	1060.8	33.63
293.15 K, x1 = 0.6503	1085.4	46.65
293.15 K, x1 = 0.7398	1107	65
293.15 K, x1 = 0.8502	1130.6	100.4
293.15 K, x1 = 0.9399	1147.7	156.4
293.15 K, x1 = 1	1158.3	223.54
298.15 K, x1 = 0.0813	856.7	4.47
298.15 K, x1 = 0.1595	901.2	6.12
298.15 K, x1 = 0.2402	941.3	8.37
298.15 K, x1 = 0.35	987.7	12.73
298.15 K, x1 = 0.4403	1020.3	17.92
298.15 K, x1 = 0.5597	1057.5	27.57
298.15 K, x1 = 0.6503	1082.1	38.2
298.15 K, x1 = 0.7398	1103.8	52.3
298.15 K, x1 = 0.8502	1127.6	79.2
298.15 K, x1 = 0.9399	1144.7	119
298.15 K, x1 = 1	1155.2	168.97
303.15 K, x1 = 0.0813	852.6	3.85
303.15 K, x1 = 0.1595	897.3	5.31
303.15 K, x1 = 0.2402	937.4	7.21
303.15 K, x1 = 0.35	984.1	10.87
303.15 K, x1 = 0.4403	1016.8	15.15
303.15 K, x1 = 0.5597	1054.2	22.92
303.15 K, x1 = 0.6503	1078.9	30.82
303.15 K, x1 = 0.7398	1100.8	41.3
303.15 K, x1 = 0.8502	1124.6	62.3
303.15 K, x1 = 0.9399	1141.8	92
303.15 K, x1 = 1	1152.3	125.36
308.15 K, x1 = 0.0813	848.6	3.32
308.15 K, x1 = 0.1595	893.3	4.58
308.15 K, x1 = 0.2402	933.6	6.25
308.15 K, x1 = 0.35	980.4	9.38
308.15 K, x1 = 0.4403	1013.3	12.93
308.15 K, x1 = 0.5597	1050.9	19.27
308.15 K, x1 = 0.6503	1075.7	25.57
308.15 K, x1 = 0.7398	1097.6	33.2
308.15 K, x1 = 0.8502	1121.7	48.8
308.15 K, x1 = 0.9399	1138.9	70.7
308.15 K, x1 = 1	1149.3	96.74
313.15 K, x1 = 0.0813	844.6	2.83
313.15 K, x1 = 0.1595	889.5	3.98
313.15 K, x1 = 0.2402	929.8	5.46
313.15 K, x1 = 0.35	976.9	8.16
313.15 K, x1 = 0.4403	1009.9	11.18
313.15 K, x1 = 0.5597	1047.7	16.39
313.15 K, x1 = 0.6503	1072.7	21.49
313.15 K, x1 = 0.7398	1094.7	28
313.15 K, x1 = 0.8502	1118.8	40
313.15 K, x1 = 0.9399	1136.1	56.6
313.15 K, x1 = 1	1146.5	75.12
318.15 K, x1 = 0.0813	840.2	2.44
318.15 K, x1 = 0.1595	885.3	3.47
318.15 K, x1 = 0.2402	925.8	4.81
318.15 K, x1 = 0.35	973.4	7.15
318.15 K, x1 = 0.4403	1006.6	9.72
318.15 K, x1 = 0.5597	1044.5	14.08
318.15 K, x1 = 0.6503	1069.6	18.26
318.15 K, x1 = 0.7398	1091.8	23.5
318.15 K, x1 = 0.8502	1116.1	33
318.15 K, x1 = 0.9399	1133.5	44.4
318.15 K, x1 = 1	1143.8	56.28
323.15 K, x1 = 0.0813	836	2.16
323.15 K, x1 = 0.1595	881.2	3.06
323.15 K, x1 = 0.2402	921.9	4.26
323.15 K, x1 = 0.35	969.7	6.32
323.15 K, x1 = 0.4403	1003.1	8.53
323.15 K, x1 = 0.5597	1041.3	12.21
323.15 K, x1 = 0.6503	1066.5	15.68
323.15 K, x1 = 0.7398	1088.9	19.7
323.15 K, x1 = 0.8502	1113.4	27.2
323.15 K, x1 = 0.9399	1130.9	36.6
323.15 K, x1 = 1	1141.2	45.17

CCCCn1cc[n+](C)c1.O=[N+]([O-])[O-] [1-butyl-3-methylimidazolium nitrate] + CCCC(C)O
Details	mass density [kg/m3]	viscosity [mPa·s]
293.15 K, x1 = 0.0812	854	4.47
293.15 K, x1 = 0.1604	893.6	5.28
293.15 K, x1 = 0.2403	929.8	6.43
293.15 K, x1 = 0.3499	974.3	9.03
293.15 K, x1 = 0.4399	1007.1	12.56
293.15 K, x1 = 0.5604	1046.7	20.29
293.15 K, x1 = 0.6505	1073.3	30.81
293.15 K, x1 = 0.7405	1097.8	47.6
293.15 K, x1 = 0.8501	1124.9	83.3
293.15 K, x1 = 0.9396	1145.3	143.6
293.15 K, x1 = 1	1158.3	223.54
298.15 K, x1 = 0.0812	850.4	3.69
298.15 K, x1 = 0.1604	890.1	4.35
298.15 K, x1 = 0.2403	926.4	5.39
298.15 K, x1 = 0.3499	971.1	7.59
298.15 K, x1 = 0.4399	1004	10.53
298.15 K, x1 = 0.5604	1043.5	17.14
298.15 K, x1 = 0.6505	1070.3	25.47
298.15 K, x1 = 0.7405	1094.8	37.96
298.15 K, x1 = 0.8501	1122	63.4
298.15 K, x1 = 0.9396	1142.3	105.6
298.15 K, x1 = 1	1155.2	168.97
303.15 K, x1 = 0.0812	846.5	3.16
303.15 K, x1 = 0.1604	886.5	3.72
303.15 K, x1 = 0.2403	922.9	4.65
303.15 K, x1 = 0.3499	967.8	6.64
303.15 K, x1 = 0.4399	1000.7	9.14
303.15 K, x1 = 0.5604	1040.5	14.61
303.15 K, x1 = 0.6505	1067.4	21.35
303.15 K, x1 = 0.7405	1092.1	31.14
303.15 K, x1 = 0.8501	1119.3	50.3
303.15 K, x1 = 0.9396	1139.5	81.8
303.15 K, x1 = 1	1152.3	125.36
308.15 K, x1 = 0.0812	842.8	2.74
308.15 K, x1 = 0.1604	882.7	3.25
308.15 K, x1 = 0.2403	919.4	4.08
308.15 K, x1 = 0.3499	964.4	5.73
308.15 K, x1 = 0.4399	997.5	7.89
308.15 K, x1 = 0.5604	1037.4	12.37
308.15 K, x1 = 0.6505	1064.4	17.74
308.15 K, x1 = 0.7405	1089.1	25.35
308.15 K, x1 = 0.8501	1116.3	40
308.15 K, x1 = 0.9396	1136.5	63.4
308.15 K, x1 = 1	1149.3	96.74
313.15 K, x1 = 0.0812	838.8	2.3
313.15 K, x1 = 0.1604	879.2	2.8
313.15 K, x1 = 0.2403	916	3.55
313.15 K, x1 = 0.3499	961.2	5.05
313.15 K, x1 = 0.4399	994.4	6.97
313.15 K, x1 = 0.5604	1034.4	10.51
313.15 K, x1 = 0.6505	1061.4	14.75
313.15 K, x1 = 0.7405	1086.1	20.64
313.15 K, x1 = 0.8501	1113.4	31.9
313.15 K, x1 = 0.9396	1133.8	50
313.15 K, x1 = 1	1146.5	75.12
318.15 K, x1 = 0.0812	834.7	1.95
318.15 K, x1 = 0.1604	875.2	2.4
318.15 K, x1 = 0.2403	912.1	3.05
318.15 K, x1 = 0.3499	957.5	4.37
318.15 K, x1 = 0.4399	990.9	5.91
318.15 K, x1 = 0.5604	1031.1	8.91
318.15 K, x1 = 0.6505	1058.3	12.21
318.15 K, x1 = 0.7405	1083.2	17.09
318.15 K, x1 = 0.8501	1110.7	26.5
318.15 K, x1 = 0.9396	1131	40
318.15 K, x1 = 1	1143.8	56.28
323.15 K, x1 = 0.0812	830.7	1.66
323.15 K, x1 = 0.1604	871.4	1.99
323.15 K, x1 = 0.2403	908.7	2.49
323.15 K, x1 = 0.3499	954.3	3.56
323.15 K, x1 = 0.4399	987.9	4.81
323.15 K, x1 = 0.5604	1028.2	7.13
323.15 K, x1 = 0.6505	1055.5	9.68
323.15 K, x1 = 0.7405	1080.5	13.67
323.15 K, x1 = 0.8501	1108.1	21.47
323.15 K, x1 = 0.9396	1128.4	32.3
323.15 K, x1 = 1	1141.2	45.17
